30 compounds from patent publication US11970474B2, “Substituted benzodiazoles and use thereof in therapy” (THOMAS HELLEDAYS STIFTELSE FÖR MEDICINSK FORSKNING, priority 2018, dated 2024) can be followed below.

For this experiment, the target named is OGG1 (Homo sapiens (Human), UniProt O15527). Put plainly: In vitro OGG1 activity assay. The experiment is classed as biochemical. To be noted: 800 pM OGG1 enzyme, 2 nM human APEX1, 10 nM 8-oxoA:C substrate. Put shortly:
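Read-out is fluorescein fluorescence, with compounds in DMSO added first, then enzyme and substrate. OGG1 excises its substrate base from a quenched fluorophore-labelled duplex, and surplus APEX1 cuts the resulting apurinic site. The duplex then melts and fluorescence rises in proportion to glycosylase activity.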

OGG1, sequence (O15527 whole entry): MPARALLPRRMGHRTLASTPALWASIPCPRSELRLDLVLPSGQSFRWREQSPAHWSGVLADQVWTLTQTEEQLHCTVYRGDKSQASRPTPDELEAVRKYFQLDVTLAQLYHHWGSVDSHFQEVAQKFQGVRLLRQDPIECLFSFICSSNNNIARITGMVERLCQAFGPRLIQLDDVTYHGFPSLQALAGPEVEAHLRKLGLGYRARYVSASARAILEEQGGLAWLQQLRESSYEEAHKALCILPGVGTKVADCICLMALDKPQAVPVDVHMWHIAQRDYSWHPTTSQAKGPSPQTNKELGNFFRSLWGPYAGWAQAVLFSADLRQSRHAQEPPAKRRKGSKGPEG

As to `COc1ccc(NC(=O)[C@H]2CC[C@@H](n3c(=O)[nH]c4c(F)cccc43)CC2)cc1` [Example 211, Cis-4-(4-fluoro-2-oxo-2,3-dihydro-1H-1,3-benzodiazol-1-yl)-N-(4-methoxyphenyl)cyclohexane-1-carboxamide], the IC50 (usually the concentration needed to halve the response being measured) was found to be 0.153 µM.
`COc1cc(NC(=O)[C@H]2CC[C@@H](n3c(=O)[nH]c4c(NC(=O)[C@@H]5CCN5)cccc43)CC2)ccc1C` [Example 287, (2S)—N-{2-Oxo-1-[cis-4-[(3-methoxy-4-methylphenyl)carbamoyl]cyclohexyl]-2,3-dihydro-1H-1,3-benzodiazol-4-yl}azetidine-2-carboxamide] gave an IC50 of 0.0271 µM.
The figure for `COc1ccc(NC(=O)[C@H]2CC[C@@H](n3c(=O)[nH]c4ccc(F)cc43)CC2)cc1` [Example 216, Cis-4-(6-fluoro-2-oxo-2,3-dihydro-1H-1,3-benzodiazol-1-yl)-N-(4-methoxyphenyl)cyclohexane-1-carboxamide] is 8.13 µM; for `COc1cc(NC(=O)[C@H]2CC[C@@H](n3c(=O)[nH]c4c(C(=O)NCCCN)cccc43)CC2)ccc1C` [Example 265, N-(3-Aminopropyl)-2-oxo-1-[cis-4-[(3-methoxy-4-methylphenyl)carbamoyl]cyclohexyl]-2,3-dihydro-1H-1,3-benzodiazole-4-carboxamide] it is 0.00028 µM; for `COc1cc(NC(=O)[C@H]2CC[C@@H](n3c(=O)[nH]c4cnccc43)CC2)ccc1C` [Example 236, Cis-N-(3-methoxy-4-methylphenyl)-4-{2-oxo-1H,2H,3H-imidazo[4,5-c]pyridin-1-yl}cyclohexane-1-carboxamide] it is 0.196 µM.
The result for `O=C(Nc1ccc(Cl)c(Cl)c1)N1CCC(n2c(=O)[nH]c3c(O)cccc32)CC1` [Example 9, N-(3,4-dichlorophenyl)-4-(4-hydroxy-2-oxo-2,3-dihydro-1H-1,3-benzodiazol-1-yl)piperidine-1-carboxamide] reads 0.796 µM; that for `COc1cc(NC(=O)N2CCC(n3c(=O)[nH]c4ccccc43)CC2)ccc1C` [Example 210, N-(3-Methoxy-4-methylphenyl)-4-(2-oxo-2,3-dihydro-1H-1,3-benzodiazol-1-yl)piperidine-1-carboxamide], 9.49 µM; that for `O=C(Nc1ccc(Cl)c(Cl)c1)N1CCC(n2c(=O)[nH]c3c(-c4ccc(C(=O)C(F)(F)F)cc4)cccc32)CC1` [Example 40, N-(3,4-dichlorophenyl)-4-{2-oxo-4-[4-(2,2,2-trifluoroacetyl)phenyl]-2,3-dihydro-1H-1,3-benzodiazol-1-yl}piperidine-1-carboxamide], 6.32 µM.
As for `CC1CC(n2c(=O)[nH]c3c(Br)cccc32)CCN1C(=O)Nc1ccc(Cl)c(Cl)c1` (stereo not drawn) [Example 112, 4-(4-Bromo-2-oxo-2,3-dihydro-1H-benzo[d]imidazol-1-yl)-N-(3,4-dichlorophenyl)-2-methylpiperidine-1-carboxamide], the IC50 amounted to 4.94 µM.
In the case of `Cc1cccc2c1[nH]c(=O)n2C1CCN(C(=O)Nc2ccc(Cl)cc2)CC1` [Example 7, N-(4-chlorophenyl)-4-(4-methyl-2-oxo-2,3-dihydro-1H-1,3-benzodiazol-1-yl)piperidine-1-carboxamide], the IC50 was 1.08 µM.
The result for `O=c1[nH]c2c(Br)cccc2n1[C@H]1CC[C@@H](C(=O)Nc2cccc3cn[nH]c23)CC1` [Example 186, Cis-4-(4-bromo-2-oxo-2,3-dihydro-1H-1,3-benzodiazol-1-yl)-N-(1H-indazol-7-yl)cyclohexane-1-carboxamide] reads 2.03 µM.
`COc1cc(NC(=O)N2CCC(n3c(=O)[nH]c4c(OC)cccc43)CC2)ccc1C` [Example 116, 4-(4-Methoxy-2-oxo-2,3-dihydro-1H-1,3-benzodiazol-1-yl)-N-(3-methoxy-4-methylphenyl)piperidine-1-carboxamide] had an IC50 of 2.06 µM.
The figure for `COc1cc(NC(=O)[C@H]2CC[C@@H](n3c(=O)[nH]c4c(NC(=O)c5nccn5C)cccc43)CC2)ccc1C` [Example 318, 1-Methyl-N-{2-oxo-1-[cis-4-[(3-methoxy-4-methylphenyl)carbamoyl]cyclohexyl]-2,3-dihydro-1H-1,3-benzodiazol-4-yl}-1H-imidazole-2-carboxamide] is 0.0795 µM.
The result for `COCCOc1cccc2c1[nH]c(=O)n2[C@H]1CC[C@@H](C(=O)Nc2ccc3cc[nH]c3c2)CC1` [Example 246, Cis-N-(1H-indol-6-yl)-4-[4-(2-methoxyethoxy)-2-oxo-2,3-dihydro-1H-1,3-benzodiazol-1-yl]cyclohexane-1-carboxamide] reads 3.63 µM; that for `COc1ccc(NC(=O)N2CCC(n3c(=O)[nH]c4c(-c5cnc6[nH]ncc6c5)cccc43)CC2)cc1Cl` [Example 101, N-(3-chloro-4-methoxyphenyl)-4-(2-oxo-4-{1H-pyrazolo[3,4-b]pyridin-5-yl}-2,3-dihydro-1H-1,3-benzodiazol-1-yl)piperidine-1-carboxamide], 2.26 µM.
Consider `O=c1[nH]c2ccccc2n1[C@H]1CC[C@@H](C(=O)Nc2ccc(F)cc2)CC1` [Example 322, Cis-N-(4-fluorophenyl)-4-(2-oxo-2,3-dihydro-1H-benzo[d]imidazol-1-yl)cyclohexanecarboxamide], for which the IC50 worked out at 2.63 µM.
The result for `Cc1nc(NC(=O)N2CCC(n3c(=O)[nH]c4c(Br)cccc43)CC2)ccc1Cl` [Example 111, 4-(4-Bromo-2-oxo-2,3-dihydro-1H-1,3-benzodiazol-1-yl)-N-(5-chloro-6-methylpyridin-2-yl)piperidine-1-carboxamide] reads 5.81 µM; that for `CCc1ccc(NC(=O)N2CCC(n3c(=O)[nH]c4c(Br)cccc43)CC2)cc1` [Example 42, 4-(4-Bromo-2-oxo-2,3-dihydro-1H-1,3-benzodiazol-1-yl)-N-(4-ethylphenyl)piperidine-1-carboxamide], 2.41 µM.
The figure for `CC(=O)Nc1cccc2c1[nH]c(=O)n2[C@H]1CC[C@@H](C(=O)Nc2ccc3[nH]ncc3c2)CC1` [Example 315, Cis-4-(4-acetamido-2-oxo-2,3-dihydro-1H-1,3-benzodiazol-1-yl)-N-(1H-indazol-5-yl)cyclohexane-1-carboxamide] is 0.759 µM.
The result for `COc1cc(NC(=O)[C@H]2CC[C@@H](n3c(=O)[nH]c4c(C(=O)NCC(O)CO)cccc43)CC2)ccc1C` (stereo partly drawn) [Example 248, N-(2,3-Dihydroxypropyl)-2-oxo-1-[cis-4-[(3-methoxy-4-methylphenyl)carbamoyl]cyclohexyl]-2,3-dihydro-1H-1,3-benzodiazole-4-carboxamide] reads 0.00677 µM; that for `O=c1[nH]c2c(F)cccc2n1[C@H]1CC[C@@H](C(=O)Nc2ccc3cc[nH]c3c2)CC1` [Example 215, Cis-4-(4-fluoro-2-oxo-2,3-dihydro-1H-1,3-benzodiazol-1-yl)-N-(1H-indol-6-yl)cyclohexane-1-carboxamide], 0.58 µM.
In turn, `NC(=O)c1ccc(NC(=O)[C@H]2CC[C@@H](n3c(=O)[nH]c4c(Br)cccc43)CC2)cc1` [Example 224, 4-[cis-4-(4-bromo-2-oxo-2,3-dihydro-1H-1,3-benzodiazol-1-yl)cyclohexaneamido]benzamide] had an IC50 of 3.66 µM.
The result for `COc1ccc(NC(=O)[C@H]2CC[C@@H](n3c(=O)[nH]c4ncccc43)CC2)cc1C` [Example 233, Cis-N-(4-methoxy-3-methylphenyl)-4-{2-oxo-1H,2H,3H-imidazo[4,5-b]pyridin-1-yl}cyclohexane-1-carboxamide] reads 0.0476 µM; that for `O=c1[nH]c2c(Br)cccc2n1[C@H]1CC[C@@H](C(=O)Nc2ccc(F)c(Cl)c2)CC1` [Example 162, (Cis)-4-(4-bromo-2-oxo-2,3-dihydro-1H-1,3-benzodiazol-1-yl)-N-(3-chloro-4-fluorophenyl)cyclohexane-1-carboxamide], 1.29 µM; that for `COc1ccc(NC(=O)[C@H]2CC[C@@H](n3c(=O)[nH]c4c(Br)cccc43)CC2)c(F)c1` [Example 156, (Cis)-4-(4-bromo-2-oxo-2,3-dihydro-1H-1,3-benzodiazol-1-yl)-N-(2-fluoro-4-methoxyphenyl)cyclohexane-1-carboxamide], 0.173 µM.
The result for `CN(C)c1cccc(NC(=O)[C@H]2CC[C@@H](n3c(=O)[nH]c4c(Br)cccc43)CC2)c1` [Example 198, Cis-4-(4-bromo-2-oxo-2,3-dihydro-1H-1,3-benzodiazol-1-yl)-N-[3-(dimethylamino)phenyl]cyclohexane-1-carboxamide] reads 5.37 µM.
The figure for `COc1cc(NC(=O)[C@H]2CC[C@@H](n3c(=O)[nH]c4c(C(=O)N5CCN(CCN(C)C)CC5)cccc43)CC2)ccc1C` [Example 275, Cis-4-(4-{4-[2-(dimethylamino)ethyl]piperazine-1-carbonyl}-2-oxo-2,3-dihydro-1H-1,3-benzodiazol-1-yl)-N-(3-methoxy-4-methylphenyl)cyclohexane-1-carboxamide] is 0.171 µM; for `COc1cc(NC(=O)[C@H]2CC[C@@H](n3c(=O)[nH]c4c(C(=O)NC5CNC5)cccc43)CC2)ccc1C` [Example 293, N-(Azetidin-3-yl)-2-oxo-1-[cis-4-[(3-methoxy-4-methylphenyl)carbamoyl]cyclohexyl]-2,3-dihydro-1H-1,3-benzodiazole-4-carboxamide] it is 0.00142 µM; for `COc1cc(NC(=O)N2CCC(n3c(=O)[nH]c4c(-c5cccnc5)cccc43)CC2)ccc1C` [Example 95, N-(3-methoxy-4-methylphenyl)-4-[2-oxo-4-(pyridin-3-yl)-2,3-dihydro-1H-1,3-benzodiazol-1-yl]piperidine-1-carboxamide] it is 1.81 µM.
The compound `O=C(NCC(O)CO)c1cnn(-c2cccc3c2[nH]c(=O)n3C2CCN(C(=O)Nc3ccc(I)cc3)CC2)c1` (stereo not drawn) [Example 90, 4-(4-{4-[(2,3-Dihydroxypropyl)carbamoyl]-1H-pyrazol-1-yl}-2-oxo-2,3-dihydro-1H-1,3-benzodiazol-1-yl)-N-(4-iodophenyl)piperidine-1-carboxamide] displayed an IC50 of 0.218 µM.
